In patent publication US8048683B2, “Insect repellent and process for identifying other insect repellent molecules” (Centre National de la Recherche Scientifique, priority 2006, dated 2011):

Experiments:
drosophilas = assay: Gustatory choice (feeding preference) behavioral test with two dyes; format: in vivo, Drosophila melanogaster
Experimental: The test used measures the feeding preference in a choice with 2 possibilities materialized by two dyes, on the one hand erioglaucine (blue) and, on the other hand, sulforhodamine (red).
The erioglaucine is used at a final concentration of 5 mg/ml, dissolved in double-distilled water, pH 7.5. The sulforhodamine is used at a final concentration of 20 mg/ml, dissolved in double-distilled water, pH 7.5. The 2 dye solutions also contain sucrose fat a final concentration of 5 mM). The agonists (pH=7.5) used are added, an the final concentrations indicated on the figures, to the solution containing the erioglaucine.
To prepare a solid medium, these various compounds are added to a molten solution of agarose (0.3% final concentration, 45° C.) and deposited in a 96-well cell culture plate (Corning Incorporated, ref 3599) such that the wells alternately contain 200 μl of blue dye then 200 μl of red dye (see FIG. 4). The plates are left at ambient temperature for 2 hours in order for the agarose to solidify, and are then used for a feeding preference test.
For each behavioral test, 60 2- to 5-day-old drosophilas are deprived of food for 24 hours on cotton wool soaked with distilled water before the test and are then placed in a box containing a 96-well plate prepared as indicated above. The drosophilas are left in the dark for 2 hours, at 25° C., at a humidity of 30 to 50%. The drosophilas are then rapidly collected by anesthesia with CO2 and then frozen at −20° C. for 20 minutes. In order to determine the food intake, the flies are counted according to the color of the content of their digestive tube. The results are expressed as % of flies which have eaten a given medium relative to the total number of flies which have eaten, according to the formula: % blue=number of flies with a blue digestive tube, divided by the number of flies which have eaten (sum of the flies with a blue, violet or red digestive tube), multiplied by 100.
At least 3 independent tests were carried out for each point indicated on the figures, and the results of the tests were counted blind for the majority of the points. Only the tests in which more than […] of the flies had eaten were included in the results and in the statistical tests (T test and ANOVA). […]
The flies are counted according to the color of the content of their digestive tube.
The results are expressed as percentage of flies which have eaten a given medium, relative to the total number of flies which have eaten. % blue=N blue/(N blue+N violet+N red)×100 […]

DmX receptor (DmXR) = target: T1, DmX receptor (DmXR) (Drosophila melanogaster, UniProt Q70GQ8); assay: Pharmacological test: DmXR activation in transfected HEK cells, measured by accumulation of inositol triphosphate; details: FIG. 1
T1 sequence (Q70GQ8 1-1073): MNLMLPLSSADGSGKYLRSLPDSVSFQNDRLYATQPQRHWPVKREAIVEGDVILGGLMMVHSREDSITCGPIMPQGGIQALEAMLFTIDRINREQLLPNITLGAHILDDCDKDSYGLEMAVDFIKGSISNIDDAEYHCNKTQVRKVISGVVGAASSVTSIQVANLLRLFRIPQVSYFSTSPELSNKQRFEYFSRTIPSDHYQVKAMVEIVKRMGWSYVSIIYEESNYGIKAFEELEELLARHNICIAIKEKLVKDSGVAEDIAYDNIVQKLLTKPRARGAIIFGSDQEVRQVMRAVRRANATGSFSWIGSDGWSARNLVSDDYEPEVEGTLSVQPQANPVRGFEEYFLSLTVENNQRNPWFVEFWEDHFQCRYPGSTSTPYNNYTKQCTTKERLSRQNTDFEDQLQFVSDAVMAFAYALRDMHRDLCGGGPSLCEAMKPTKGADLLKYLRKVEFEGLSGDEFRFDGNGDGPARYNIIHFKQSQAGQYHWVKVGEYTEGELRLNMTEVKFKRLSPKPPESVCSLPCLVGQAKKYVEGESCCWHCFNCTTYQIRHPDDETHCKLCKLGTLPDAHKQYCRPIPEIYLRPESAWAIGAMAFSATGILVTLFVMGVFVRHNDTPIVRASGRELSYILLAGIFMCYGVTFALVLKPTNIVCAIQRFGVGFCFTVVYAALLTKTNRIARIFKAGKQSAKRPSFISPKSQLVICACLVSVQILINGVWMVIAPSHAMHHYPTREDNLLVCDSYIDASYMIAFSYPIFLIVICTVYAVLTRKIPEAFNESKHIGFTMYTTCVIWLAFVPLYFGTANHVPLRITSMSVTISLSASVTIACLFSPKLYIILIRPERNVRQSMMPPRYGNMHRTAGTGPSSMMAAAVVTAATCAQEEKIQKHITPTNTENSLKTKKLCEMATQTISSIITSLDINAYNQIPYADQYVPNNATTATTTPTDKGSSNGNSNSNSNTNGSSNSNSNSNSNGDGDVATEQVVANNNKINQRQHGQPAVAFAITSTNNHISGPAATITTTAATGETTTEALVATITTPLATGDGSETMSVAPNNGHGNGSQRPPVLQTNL

N=C(N)NOCC[C@H](N)C(=O)O [L-canavanine, L-2-amino-4-(guanidinooxy)butyric acid]
effect on sugary solution in behavioral test (drosophilas; 40 mM, 5 mM sucrose): very highly repellent | concentration at which a plateau of repellent effect is reached (drosophilas; additional experiments): around 30 mM | repulsion in DmX receptor function loss mutants (drosophilas; mutant drosophilas m1 and m2 (DmXR-)): no longer have any repulsion | repellent effect in chemosensory behavioral test (drosophilas; wild-type drosophila, sugary solution (5 mM sucrose)): highly repellent | in vitro activation of the DmX receptor (DmX receptor (DmXR)): activated
